Measured values: patent publication US10758534B2 (Vertex Pharmaceuticals Incorporated, priority 2014, dated 2020)

target: T1, F508del (Homo sapiens, UniProt P13569, DEL508-508); test: Protocol 1: membrane potential optical assay (FLIPR III, voltage sensing dye), identification of potentiator compounds; assay type: cell-based; settings: Table 3, compounds of Table 1
T1 construct: expressed in transfected cells
Summary of the method: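 Read-out: change in voltage-sensing dye fluorescence (FLIPR III) as a measure of F508del conductance. Temperature-corrected (27° C, 24 hrs) NIH 3T3 cells expressing F508del are pretreated with potentiators, dye-loaded, then stimulated with forskolin under a chloride ion gradient using chloride-free gluconate bath.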

T1 sequence (P13569 with tags, fused parts or gaps DEL508-508): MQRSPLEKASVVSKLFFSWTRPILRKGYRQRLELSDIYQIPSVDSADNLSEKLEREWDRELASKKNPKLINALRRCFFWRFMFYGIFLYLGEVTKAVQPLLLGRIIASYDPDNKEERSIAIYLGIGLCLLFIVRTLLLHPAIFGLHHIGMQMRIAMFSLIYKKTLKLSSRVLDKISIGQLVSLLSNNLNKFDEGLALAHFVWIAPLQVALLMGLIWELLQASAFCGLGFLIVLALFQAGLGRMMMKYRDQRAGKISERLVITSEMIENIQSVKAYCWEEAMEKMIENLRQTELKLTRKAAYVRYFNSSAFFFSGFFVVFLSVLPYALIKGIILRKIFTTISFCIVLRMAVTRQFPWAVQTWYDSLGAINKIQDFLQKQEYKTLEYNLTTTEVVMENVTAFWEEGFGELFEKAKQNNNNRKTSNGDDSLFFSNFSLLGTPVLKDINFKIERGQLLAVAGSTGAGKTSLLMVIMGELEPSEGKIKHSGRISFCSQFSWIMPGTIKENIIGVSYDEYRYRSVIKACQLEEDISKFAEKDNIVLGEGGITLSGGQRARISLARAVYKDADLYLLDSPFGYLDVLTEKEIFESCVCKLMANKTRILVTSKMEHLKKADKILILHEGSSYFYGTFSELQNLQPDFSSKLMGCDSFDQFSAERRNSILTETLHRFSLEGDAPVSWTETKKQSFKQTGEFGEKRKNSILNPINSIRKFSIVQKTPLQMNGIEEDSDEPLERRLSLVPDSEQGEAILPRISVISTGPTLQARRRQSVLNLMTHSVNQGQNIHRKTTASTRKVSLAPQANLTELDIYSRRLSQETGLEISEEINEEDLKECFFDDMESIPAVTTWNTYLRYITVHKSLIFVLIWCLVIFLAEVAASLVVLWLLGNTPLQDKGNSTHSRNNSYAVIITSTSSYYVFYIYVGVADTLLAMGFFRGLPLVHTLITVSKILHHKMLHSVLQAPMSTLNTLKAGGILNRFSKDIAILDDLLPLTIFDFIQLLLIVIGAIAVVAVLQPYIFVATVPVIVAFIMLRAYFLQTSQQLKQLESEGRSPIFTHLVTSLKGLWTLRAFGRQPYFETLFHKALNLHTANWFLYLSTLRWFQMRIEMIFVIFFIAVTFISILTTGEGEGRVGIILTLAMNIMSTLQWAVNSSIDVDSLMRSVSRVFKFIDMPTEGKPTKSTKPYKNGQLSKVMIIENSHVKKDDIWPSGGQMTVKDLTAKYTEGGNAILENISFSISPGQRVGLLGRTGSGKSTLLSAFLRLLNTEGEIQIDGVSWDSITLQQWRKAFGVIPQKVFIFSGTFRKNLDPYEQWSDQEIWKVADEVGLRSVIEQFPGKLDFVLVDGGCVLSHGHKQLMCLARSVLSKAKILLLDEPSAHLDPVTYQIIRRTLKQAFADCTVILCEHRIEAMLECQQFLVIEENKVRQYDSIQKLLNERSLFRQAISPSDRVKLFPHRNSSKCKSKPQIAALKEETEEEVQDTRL

Row | Structure (SMILES) | EC30
1 | CC(Cc1ccccc1)Oc1nc(C(C)(C)C)ccc1C(=O)NS(=O)(=O)c1cccc(N)n1 (centres unmarked) [Compound 1314, N-[(6-amino-2-pyridyl)sulfonyl]-6-tert-butyl-2-(1-methyl-2-phenyl-ethoxy)pyridine-3-carboxamide] | +++ (“+++” means <3 uM)
2 | CC(C)COc1cc(F)cc(-c2ccc(C(=O)NS(=O)(=O)c3ccn[nH]3)c(N3CCC(c4ccccc4)CC3)n2)c1 [Compound 1315, 6-(3-fluoro-5-isobutoxy-phenyl)-2-(4-phenyl-1-piperidyl)-N-(1H-pyrazol-5-ylsulfonyl)pyridine-3-carboxamide] | +++ (“+++” means <3 uM)
3 | CC(C)Oc1ccc(-c2ccc(C(=O)NS(=O)(=O)c3cccnc3N)c(N3[C@H](C)CC[C@@H]3C)n2)cn1 [Compound 1316, N-[(2-amino-3-pyridyl)sulfonyl]-2-[(2S,5R)-2,5-dimethylpyrrolidin-1-yl]-6-(6-isopropoxy-3-pyridyl)pyridine-3-carboxamide] | +++ (“+++” means <3 uM)
4 | CC(C)COc1cc(F)cc(-c2ccc(C(=O)NS(=O)(=O)c3cccc(N)n3)c(N3CCC(c4ccccc4)C3C)n2)c1 (centres unmarked) [Compound 1319, N-[(6-amino-2-pyridyl)sulfonyl]-6-(3-fluoro-5-isobutoxy-phenyl)-2-(2-methyl-3-phenyl-pyrrolidin-1-yl)pyridine-3-carboxamide] | +++ (“+++” means <3 uM)
5 | CC(C)Oc1ccc(-c2ccc(C(=O)NS(=O)(=O)c3cccc(N)n3)c(N3CC[C@@H](C)C3)n2)cn1 [Compound 1322, N-[(6-amino-2-pyridyl)sulfonyl]-6-(6-isopropoxy-3-pyridyl)-2-[(3R)-3-methylpyrrolidin-1-yl]pyridine-3-carboxamide] | ++ (“++” means between 3 uM and 10 uM)
6 | CC(C)COc1cc(F)cc(-c2ccc(C(=O)NS(=O)(=O)c3cccc4[nH]ccc34)c(N3CCC(C)(C)CC3)n2)c1 [Compound 1323, 2-(4,4-dimethyl-1-piperidyl)-6-(3-fluoro-5-isobutoxy-phenyl)-N-(1H-indol-4-ylsulfonyl)pyridine-3-carboxamide] | + (“+” means greater than 10 uM)
7 | CC(C)COc1cc(F)cc(-c2ccc(C(=O)NS(=O)(=O)c3cccc(N)n3)c(OC3CCOCC3)n2)c1 [Compound 1324, N-[(6-amino-2-pyridyl)sulfonyl]-6-(3-fluoro-5-isobutoxy-phenyl)-2-tetrahydropyran-4-yloxy-pyridine-3-carboxamide] | +++ (“+++” means <3 uM)
8 | CC(C)Oc1ccc(-c2ccc(C(=O)NS(=O)(=O)c3cccc(N)n3)c(N3CCC(C)(C)C3C)n2)cn1 (centres unmarked) [Compound 1327, N-[(6-amino-2-pyridyl)sulfonyl]-6-(6-isopropoxy-3-pyridyl)-2-(2,3,3-trimethylpyrrolidin-1-yl)pyridine-3-carboxamide] | +++ (“+++” means <3 uM)
9 | CC(C)(C)COc1cccc(-c2ccc(C(=O)NS(=O)(=O)c3cccc(N)n3)c(N3CCCC3(C)C)n2)n1 [Compound 1328, N-[(6-amino-2-pyridyl)sulfonyl]-6-[6-(2,2-dimethylpropoxy)-2-pyridyl]-2-(2,2-dimethylpyrrolidin-1-yl)pyridine-3-carboxamide] | +++ (“+++” means <3 uM)
10 | CC(C)COc1cc(F)cc(-c2ccc(C(=O)NS(=O)(=O)c3cccc(N)n3)c(N3CCCC34CC4)n2)c1 [Compound 1333, N-[(6-amino-2-pyridyl)sulfonyl]-2-(7-azaspiro[2.4]heptan-7-yl)-6-(3-fluoro-5-isobutoxy-phenyl)pyridine-3-carboxamide] | +++ (“+++” means <3 uM)
11 | CC1CN(c2nc(-c3ccccc3)ccc2C(=O)NS(=O)(=O)c2cccc(N)n2)C(C)(C)C1 (centres unmarked) [Compound 1334, N-[(6-amino-2-pyridyl)sulfonyl]-6-phenyl-2-(2,2,4-trimethylpyrrolidin-1-yl)pyridine-3-carboxamide] | +++ (“+++” means <3 uM)
12 | CC(C)COc1ccc(-c2ccc(C(=O)NS(=O)(=O)c3ccn[nH]3)c(N3[C@H](C)CC[C@@H]3C)n2)cc1 [Compound 1335, 2-[(2S,5R)-2,5-dimethylpyrrolidin-1-yl]-6-(4-isobutoxyphenyl)-N-(1H-pyrazol-5-ylsulfonyl)pyridine-3-carboxamide] | +++ (“+++” means <3 uM)
13 | Cc1cc(C)c(CN2Cc3c(O)cccc3C2(C)C(=O)NS(=O)(=O)c2cccc(N)n2)c(C)c1 (centres unmarked) [Compound 1338, N-[(6-amino-2-pyridyl)sulfonyl]-4-hydroxy-1-methyl-2-[(2,4,6-trimethylphenyl)methyl]isoindoline-1-carboxamide] | ++ (“++” means between 3 uM and 10 uM)
14 | CC(C)COc1cc(F)cc(-c2ccc(C(=O)NS(=O)(=O)c3cccc(CO)n3)c(N3CCC(C)CC3)n2)c1 [Compound 1340, 6-(3-fluoro-5-isobutoxy-phenyl)-N-[[6-(hydroxymethyl)-2-pyridyl]sulfonyl]-2-(4-methyl-1-piperidyl)pyridine-3-carboxamide] | +++ (“+++” means <3 uM)
15 | CCC1(C)CCCN(c2nc(-c3ccc(OC(C)C)nc3)ccc2C(=O)NS(=O)(=O)c2cccc(N)n2)C1 (centres unmarked) [Compound 1341, N-[(6-amino-2-pyridyl)sulfonyl]-2-(3-ethyl-3-methyl-1-piperidyl)-6-(6-isopropoxy-3-pyridyl)pyridine-3-carboxamide] | +++ (“+++” means <3 uM)

Now from value to molecule:

Row | EC30 | Structure (SMILES)
16 | +++ (“+++” means <3 uM) | Cc1cc(C)c(Oc2nc(-c3ccnn3C(C)C)ccc2C(=O)NS(=O)(=O)c2cccc(N)n2)c(C)c1 [Compound 1317, N-[(6-amino-2-pyridyl)sulfonyl]-6-(2-isopropylpyrazol-3-yl)-2-(2,4,6-trimethylphenoxy)pyridine-3-carboxamide]
17 | +++ (“+++” means <3 uM) | Cc1ccccc1Oc1nc(C(C)(C)C)ccc1C(=O)NS(=O)(=O)c1cccc(N)n1 [Compound 1318, N-[(6-amino-2-pyridyl)sulfonyl]-6-tert-butyl-2-(2-methylphenoxy)pyridine-3-carboxamide]
18 | +++ (“+++” means <3 uM) | COc1ccc(C)cc1-c1ccc(C(=O)NS(=O)(=O)c2cccc(N)n2)c(Oc2c(C)cc(C)cc2C)n1 [Compound 1320, N-[(6-amino-2-pyridyl)sulfonyl]-6-(2-methoxy-5-methyl-phenyl)-2-(2,4,6-trimethylphenoxy)pyridine-3-carboxamide]
19 | ++ (“++” means between 3 uM and 10 uM) | Cc1cc(C)c(Oc2ncc(-c3ccccc3)cc2C(=O)NS(=O)(=O)c2cccc(N)c2)c(C)c1 [Compound 1321, N-(3-aminophenyl)sulfonyl-5-phenyl-2-(2,4,6-trimethylphenoxy)pyridine-3-carboxamide]
20 | +++ (“+++” means <3 uM) | Cc1cc(C)c(Oc2nc(-c3cc(F)cc(F)c3)ccc2C(=O)NS(=O)(=O)c2cccc(N)n2)c(C)c1 [Compound 1325, N-[(6-amino-2-pyridyl)sulfonyl]-6-(3,5-difluorophenyl)-2-(2,4,6-trimethylphenoxy)pyridine-3-carboxamide]
21 | ++ (“++” means between 3 uM and 10 uM) | COc1cccc(OC)c1-c1ccc(C(=O)NS(=O)(=O)c2cccc(N)n2)c(Oc2c(C)cc(C)cc2C)n1 [Compound 1326, N-[(6-amino-2-pyridyl)sulfonyl]-6-(2,6-dimethoxyphenyl)-2-(2,4,6-trimethylphenoxy)pyridine-3-carboxamide]
22 | ++ (“++” means between 3 uM and 10 uM) | Cc1cc(C)c(Oc2nc(C3CCC(F)(F)CC3)ccc2C(=O)NS(=O)(=O)c2ccc[nH]c2=O)c(C)c1 [Compound 1329, 6-(4,4-difluorocyclohexyl)-N-[(2-oxo-1H-pyridin-3-yl)sulfonyl]-2-(2,4,6-trimethylphenoxy)pyridine-3-carboxamide]
23 | +++ (“+++” means <3 uM) | Cc1cc(C)c(Oc2nc(C3=CCCC3)ccc2C(=O)NS(=O)(=O)c2cccc(N)n2)c(C)c1 [Compound 1330, N-[(6-amino-2-pyridyl)sulfonyl]-6-(cyclopenten-1-yl)-2-(2,4,6-trimethylphenoxy)pyridine-3-carboxamide]
24 | + (“+” means greater than 10 uM) | Cc1ccc(-c2nc(C(C)(C)C)ccc2C(=O)NS(=O)(=O)c2cccc(N)c2)c(F)c1 [Compound 1331, N-(3-aminophenyl)sulfonyl-6-tert-butyl-2-(2-fluoro-4-methyl-phenyl)pyridine-3-carboxamide]
25 | +++ (“+++” means <3 uM) | COc1ncc(-c2ccc(C(=O)NS(=O)(=O)c3cccc(N)n3)c(Oc3c(C)cc(C)cc3C)n2)cc1Cl [Compound 1332, N-[(6-amino-2-pyridyl)sulfonyl]-6-(5-chloro-6-methoxy-3-pyridyl)-2-(2,4,6-trimethylphenoxy)pyridine-3-carboxamide]
26 | +++ (“+++” means <3 uM) | Cc1cc(C)c(Oc2nc(-c3cnn(CCC(C)C)c3)ccc2C(=O)NS(=O)(=O)c2cccc(N)n2)c(C)c1 [Compound 1336, N-[(6-amino-2-pyridyl)sulfonyl]-6-(1-isopentylpyrazol-4-yl)-2-(2,4,6-trimethylphenoxy)pyridine-3-carboxamide]
27 | +++ (“+++” means <3 uM) | CCOc1ccc(-c2ccc(C(=O)NS(=O)(=O)c3cccc(N)n3)c(Oc3c(C)cc(C)cc3C)n2)cc1 [Compound 1337, N-[(6-amino-2-pyridyl)sulfonyl]-6-(4-ethoxyphenyl)-2-(2,4,6-trimethylphenoxy)pyridine-3-carboxamide]
28 | +++ (“+++” means <3 uM) | CC(C)Oc1ccc(-c2ccc(C(=O)NS(=O)(=O)c3cccc(N)n3)c(N3CCCC(c4cccc(Cl)c4)C3)n2)cn1 (centres unmarked) [Compound 1339, N-[(6-amino-2-pyridyl)sulfonyl]-2-[3-(3-chlorophenyl)-1-piperidyl]-6-(6-isopropoxy-3-pyridyl)pyridine-3-carboxamide]
29 | +++ (“+++” means <3 uM) | COc1ncccc1S(=O)(=O)NC(=O)C1CCc2ccccc2CN1Cc1c(C)cc(C)cc1C (centres unmarked) [Compound 1342, N-[(2-methoxy-3-pyridyl)sulfonyl]-2-[(2,4,6-trimethylphenyl)methyl]-1,3,4,5-tetrahydro-2-benzazepine-3-carboxamide]
